Test results reported in patent US4981788A, “Novel acetylpolyamine amidohydrolase” (Kyowa Hakko Kogyo Co., Ltd., priority 1987, dated 1991).
Like-named read-outs stand apart in the source and are kept apart here.

Columns and labels:
[1] = test system: E2: Enzyme derived from Arthrobacter sp. (acetylpolyamine amidohydrolase); details: pH 7.0, cited from earlier work; for Relative activity, E2: activity against acetylputrescine defined as 100
[2] = target: T1, acetylpolyamine amidohydrolase (the present enzyme, product purified to homogeneity) (Mycoplana ramosa, UniProt Q48935); assay: Enzyme activity on acetylpolyamine substrates, product purified to homogeneity (Method 2 / Method 3); type: biochemical, Mycoplana bullata; details: for Optimum pH: 37° C., phosphate and borate buffers, per substrate; for Vmax, Mycoplana bullata enzyme: pH 9.0; for Relative activity, Mycoplana bullata enzyme: phosphate buffer pH 9.0, substrate 0.833 mM, acetylputrescine = 100
T1 construct: novel acetylpolyamine amidohydrolase of the present invention accumulated within the grown cells; made in house; host or cells: Mycoplana (natural producer)
T1 sequence (Q48935 1-341): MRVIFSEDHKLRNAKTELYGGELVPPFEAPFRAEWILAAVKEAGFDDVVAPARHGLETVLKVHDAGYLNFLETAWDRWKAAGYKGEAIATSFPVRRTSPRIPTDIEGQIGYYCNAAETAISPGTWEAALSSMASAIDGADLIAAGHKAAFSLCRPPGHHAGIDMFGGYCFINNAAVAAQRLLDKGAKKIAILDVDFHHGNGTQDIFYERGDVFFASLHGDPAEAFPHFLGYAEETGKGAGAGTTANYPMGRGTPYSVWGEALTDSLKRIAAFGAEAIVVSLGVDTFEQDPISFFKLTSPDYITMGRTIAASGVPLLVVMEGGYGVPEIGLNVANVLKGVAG
Excerpt: [Method 2] (Assay when acetylputrescine, acetylcadaverine, N^1 -acetylspermidine and N^8 -acetylspermidine are used as substrate:)
The acetylpolyamine can be hydrolyzed by the acetylpolyamine amidohydrolase, as described in [Method 1], and the corresponding free polyamine thus formed is then oxidized by putrescine oxidase. Putrescine oxidase derived from Micrococcus rubens is known to have an activity upon putrescine, cadaverine and spermidine [Adachi, et al., Agric. Biol. Chem, 30, 1202 (1966)]. […] The actual analytical procedure is as described below.
The above reagents, (b) through (h), were put in a cuvette (d: 1.0 cm) and the mixture was preincubated at 37° C. for 2 minutes. The substrate solution (a) was then added, and the resulting mixture was incubated at 37° C. Absorbance at 500 nm was measured over a period of 3 to 5 minutes, and the change in absorbance per minute (ΔODsample) was determined from the linear portion of the plotted curve. For control, the same procedure as above was carried out, using distilled water as reference.
One unit of acetylpolyamine amidohydrolase is defined as its amount necessary to hydrolyze 1 μmole of acetylputrescine at 37° C. for one minute (or the amount necessary to form 0.5 μmole of quinoneimine pigment formed in the method for measuring the enzyme activity described above).
[Method 3] (Assay when acetylspermine is used as substrate:)
Acetylspermine is hydrolyzed by the action of acetylpolyamine amidohydrolase into free form of spermine. The free form of spermine can be oxidized by a polyamine oxidase derived from Aspergillus terreus to produce hydrogen peroxide. Two molar equivalents of hydrogen peroxide is formed from one molar equivalent of spermine. Thus, the enzyme activity can be measured by quantitative determination of the hydrogen peroxide according to the method described above. However, since the above polyamine oxidase also acts upon acetylspermine, it is impossible to exactly measure the activity of acetylpolyamine amidohydrolase by the standard assay. […] The actual procedure is described below.
Reagents (b) through (d) given in item (1) were put in a test tube and the mixture was preincubated at 37° C. for 2 minutes. The substrate solution (a) was then added, the resulting mixture was incubated at 37° C. for 10 minutes, and the reaction was stopped by addition of the termination (e). A sample solution (100 μl) was taken from the reaction mixture and subjected to HPLC as described above to separate free form of spermine from acetylspermine. Generally, acetylspermine is eluted at a position of 38 minutes after the start of elution and free form of spermine at a position of 41 minutes after the start of elution. A sample solution (200 μl), taken from the eluate containing free form of spermine, was mixed in a cuvette with reagents (a) through (e) given in item (2) above, the mixture was incubated at 37° C. for 10 minutes, and the absorbance at 755 nm was measured. For control, the same procedure as above was carried out using 200 μl of Elunt A in place of the sample solution, as reference.
The concentration of free form of spermine in the reaction mixture can be determined from a calibration curve previously prepared on the basis of aqueous soluitons of free form of spermine with different concentrations. If the concentration of free form of spermine contained in 150 μl of the reaction mixture is taken as P (mM), then the potency (A) for 1 ml of the enzyme solution can be expressed by the following equation: […]
The activities upon acetylputrescine, acetylcadaverine, N^1 -acetylspermidine and N^8 -acetylspermidine were measured by [Method 2] in a phosphate buffer (pH 9.0) at a substrate concentration of 0.833 mM, and the activity upon acetyl-spermine was measured by [Method 3] under the same conditions. […] Km values, determined from the Lineweaver-Burk plot, are also listed in the same table. […]

[3] = test system: E1: Enzyme derived from Streptomyces avellaneus (acetylpolyamine amidohydrolase); details: cited from earlier work; for Relative activity, E1: activity against acetylputrescine defined as 100; for Relative activity, St. avellaneus enzyme: acetylputrescine = 100
[4] = test system: E3: Enzyme derived from Micrococcus luteus (acetylpolyamine amidohydrolase); details: pH 7.0, cited from earlier work; for Relative activity, E3: activity against acetylputrescine defined as 100
[5] = target: T2, acetylpolyamine amidohydrolase (the present enzyme, partially purified product) (Mycoplana ramosa, UniProt Q48935); assay: Enzyme activity on acetylpolyamine substrates, partially purified product (substrate specificity, optimum pH/temperature, Km); type: biochemical, Mycoplana bullata; details: for Optimum pH: pH 6 to 10, bis-Tris propane buffer, per substrate; for Relative activity, the present enzyme: pH 7.0, activity against acetylputrescine defined as 100
T2 construct: novel acetylpolyamine amidohydrolase of the present invention accumulated within the grown cells; made in house; host or cells: Mycoplana (natural producer; cells grown in culture)
T2 sequence (Q48935 1-341): T1 sequence (Q48935 1-341)
Method: Activity of the present enzyme (partially purified products) is measured according to the following procedure. That is, 0.1 ml of an enzyme solution is added to a reagent solution consisting of 1.5 ml of 0.1 M phosphate buffer (pH 7.0), 0.05 ml of 50 mM acetylpolyamine, 0.4 U of putrescine oxidase (when acetylputrescine, acetylcadaverine or acetylspermidine is used as substrate) or polyamine oxidase (when acetylspermidine or acetylspermine is used as substrate), 0.5 ml of 2.4 mM 4-aminoantipyrine, 0.5 ml of 42 mM phenol and 20 U of peroxidase. The mixture is incubated at 37° C., and the absorbance of quinoneimine pigment formed at 500 nm is measured.
In terms of the enzyme activity, the amount of enzyme that can hydrolyze 1 μmole of a substrate in one minute is defined as one unit (1 U).
The relative activities of acetylpolyamine amidohydrolases against various type of acetylpolyamine, defining the activities against acetylputrescine as 100 under a condition of pH 7.0, are as shown in Table 1 below.
Enzyme activity was measured at different pH levels ranging from 6 to 10 by using bis-Tris propane buffer solutions. The optimum pH was 9 for acetylputrescine and acetylcadaverine, and 8 for N^1 -acetylspermidine, N^8 -acetylspermidine and acetylspermine, as shown in FIG. 1.
The optimum working temperature for the present enzyme was about 50° C., when the relative activity was determined, using acetylputrescine as substrate, as shown in FIG. 4. The optimum temperatures for the other acetylpolyamine amidohydrolases were 30° to 40° C. This clearly distinguishes the present enzyme from the known enzymes.
Km values of the present enzyme and the other known enzymes for various types of acetylpolyamine at pH 7.0 were determined from the Line weaver-Burk plot [refer to J. Am. Chem. Soc., 56, 658 (1934)].

[6] = reported reference data in Table 5

Row | Compound | Relative activity, E2 [1] [%] | Km [1] [µM] | Optimum pH [2] | Relative activity, E1 ([3]; pH 7.0) [%] | Km ([3]; pH 7.0, read-out: Km, E1) [µM] | Relative activity, St. avellaneus enzyme [3, 6] [%] | Km ([3]; reported reference data in Table 5, read-out: Km, St. avellaneus enzyme) [µM] | Substrate concentration at which substrate inhibition was observed [2] [mM] | Vmax, Mycoplana bullata enzyme [2] [u/mg] | Relative activity, Mycoplana bullata enzyme [2] [%] | Relative activity, E3 [4] [%] | Optimum pH [5] | Relative activity, the present enzyme [5] [%] | Km ([2]; pH 9.0, Lineweaver-Burk plot, read-out: Km, Mycoplana bullata enzyme) [µM] | Km ([5]; pH 7.0, Lineweaver-Burk plot) [µM] | Km [4] [µM]
1 | Acetylspermidine | 30 | 500 | 9 | 9.1 | 1100 | 9.1 | 1100 | – | – | – | – | – | – | – | – | –
2 | CC(=O)NCCCNCCCCN [N^1 -Acetylspermidine] | – | – | 9 | – | – | – | – | ≥ 1 | 20.5 | 61 | 3.5 | 8 | 108 | – | – | –
3 | CC(=O)NCCCNCCCCNCCCN [Acetylspermine] | 3 | – | 10 | 0.4 | – | 0.4 | – | > 1.6 | 7.7 | 37 | 2.1 | 8 | 24 | 290 | 160 | –
4 | CC(=O)NCCCCCN [Acetylcadaverine] | 45 | 1600 | – | – | – | – | – | ≥ 1 | 18.8 | 72 | 12.5 | 9 | 71 | – | – | –
5 | CC(=O)NCCCCNCCCN [N^8 -Acetylspermidine] | – | – | 9 | – | – | – | – | ≥ 1 | 19.8 | 60 | 85.1 | 8 | 51 | – | – | 380
